These results are taken from patent US10406128B2, “Treatment and diagnosis of colon cancer” (The Rockefeller University, priority 2012, dated 2019).

For series [1], the system named is LvM3b cells. Put plainly: Liver metastasis in mice injected with LvM3b cells with or without CKB knockdown, pre-treated with metabolite. The format is in vivo. The following applies: for rescue of metastasis suppression upon CKB knockdown: LvM3b cells with CKB knockdown, pre-treated 10 uM, day 21. The text has this: CKB is known to regulate the reservoir of rapidly mobilized high-energy phosphates in tissues such as the brain and kidneys by catalyzing the transfer of a high-energy phosphate group from phosphocreatine to ADP, yielding ATP and creatine. It was hypothesized that CKB generation of ATP from phosphocreatine might provide colon cancer cells with an energetic advantage during hepatic colonization. To determine if ATP, the end-product of CKB catalysis, could rescue metastasis suppression seen upon CKB knockdown, CKB knockdown cells were loaded with ATP prior to injection of cells in experimental metastasis assays. Briefly, liver metastasis was examined in mice injected with 5×10^5 LvM3b with or without CKB knockdown and pre-treated with 100 uM ATP or vehicle. Metastatic burden was monitored by bioluminescent imaging and mice euthanized 21 days after injection.
Similar studies were done to determine whether creatine and phosphocreatine could rescue the phenotype of seen upon CKB knock-down. More specifically, assays were performed to examine liver metastasis in mice injected with 5×10^5 LvM3b cells pre-treated with 10 uM creatine, in the background of CKB knockdown. The mice were then euthanized as described above and liver extracted for ex vivo bioluminescent imaging at day 21 after injection. Also, colorectal cancer metastasis was examined in mice injected with 5×10^5 LvM3b cells with CKB knockdown and pre-treated with 10 uM creatine-phosphate. Liver metastasis was monitored by bioluminescent imaging and mice were euthanized as described above.

For series [2], the system named is PANC1 pancreatic cancer cells. Put plainly: Survival of PANC1 cells pre-treated with B-GPA in immunodeficient mice, bioluminescence imaging. In kind it is in vivo. As to conditions: PANC1 cells pre-treated 10 mM 48 hours. The procedure:
Briefly, PANC1 pancreatic cancer cells were incubated for 48 hours with and without the presence of 10 mM of B-GPA, then injected into immunodeficient mice (5×10^5 PANC1 cells each mouse; 4 mice each in the treated and untreated cohort). The mice were imaged with bioluminescence imaging on day 1 after injection and signal was normalized to day zero. […] More specifically, the average photon flux ratios as measure by the bioluminescence imaging for the control group (without treatment of B-GPA) and the treated groups were about 2.7 and 1.6, respectively.

The test system of series [3] is Ls-LvM3b colon cancer cells. Put plainly: Cell viability of Ls-LvM3b cells, WST-1 reagent, 5'-Fluorouracil with or without B-GPA. The format is cell-based, human. As to conditions: 10 mM B-GPA, 48 hours. The procedure:
To that end, 10,000 Ls-LvM3b cells were seeded in triplicate in 96-well plates and treated with various concentrations of 5′-Fluorouracil with or without 10 mM of B-GPA for 48 hours. Cell viability was assayed in the same manner described above with absorbance at 440 nm an indicator of the number of viable cells.

For series [4], the system named is PANC1 pancreatic cancer cells. Put plainly: Cell viability of PANC1 cells, WST-1 reagent, Gemcitabine with or without B-GPA. As to conditions: 10 mM B-GPA, 48 hours, Gemcitabine 1 nm-1000000 nm. In kind it is cell-based, human. The method, then:
Briefly, 10000 PANC1 cells were seeded in triplicate in 96-well plates and treated with various concentrations of Gemcitabine (1 nm, 10 nm, 100 nm, 1000 nm, 10000 nm, 100000 nm, and 1000000 nm) with or without 10 mM of B-GPA for 48 hours. Cell viability was then assayed using the WST-1 reagent (Roche Applied Science), with absorbance at 440 nm an indicator of the number of viable cells.

The subject of series [5] is LvM3b cells. Put plainly: Liver metastasis in mice injected with LvM3b cells, treated by daily intra-peritoneal injection, bioluminescent imaging. The format is in vivo. The procedure:
Mice were treated with 10 mg of cyclocreatine or saline vehicle, administered through intra-peritoneal injection. The treatment regime started one day after inoculation of tumor cells and continued until the mice were euthanized. Beta-guanidipropionic acid was administered at a dose of 200 ul of 0.5M solution through intra-peritoneal injection. Treatment regime were as that for cyclocreatine treatment.
Finally, assays were carried out to determine the impact of small-molecule inhibition of CKB and restriction of creatine availability on colon cancer metastasis. Cyclocreatine, which resembles phosphocreatine, is a transition-state analog for creatine kinases. To examine the effect of cyclocreatine, bioluminescent measurements of liver metastasis were carried out in mice injected with 5×10^5 LvM3b cells and treated with cyclocreatine daily for two weeks. The mice were then euthanized and livers excised for ex vivo imaging at the end of the treatment.
Similar assays were carried out using a creatine transporter inhibitor beta-guanidinopropionic acid (B-GPA). Bioluminescent measurements were used to examine liver metastasis in mice injected with 5×10^5 LvM3b cells and treated with B-GPA daily for two weeks.
In this example, assays were carried out to confirm the therapeutic potential of targeting the creatine transporter channel SLC6a8 by administering the small molecule B-GPA, which is an inhibitor of SLC6a8. […] To confirm this therapeutic effect, mice injected with LvM3b colon cancer cells we treated with either B-GPA or control vehicle (PBS) via intra-peritoneal injection daily for three weeks (FIG. 2). The mice were euthanized at three weeks and liver extracted for bioluminescent imaging and gross histology.
More specifically, the average photon flux ratios as measure by the bioluminescence imaging for the control group (without treatment of B-GPA) and the treated groups were about 800 and 100, respectively.

The target of series [6] is T1, SLC6a8 (Homo sapiens, UniProt P48029).
T1 sequence (P48029 1-635): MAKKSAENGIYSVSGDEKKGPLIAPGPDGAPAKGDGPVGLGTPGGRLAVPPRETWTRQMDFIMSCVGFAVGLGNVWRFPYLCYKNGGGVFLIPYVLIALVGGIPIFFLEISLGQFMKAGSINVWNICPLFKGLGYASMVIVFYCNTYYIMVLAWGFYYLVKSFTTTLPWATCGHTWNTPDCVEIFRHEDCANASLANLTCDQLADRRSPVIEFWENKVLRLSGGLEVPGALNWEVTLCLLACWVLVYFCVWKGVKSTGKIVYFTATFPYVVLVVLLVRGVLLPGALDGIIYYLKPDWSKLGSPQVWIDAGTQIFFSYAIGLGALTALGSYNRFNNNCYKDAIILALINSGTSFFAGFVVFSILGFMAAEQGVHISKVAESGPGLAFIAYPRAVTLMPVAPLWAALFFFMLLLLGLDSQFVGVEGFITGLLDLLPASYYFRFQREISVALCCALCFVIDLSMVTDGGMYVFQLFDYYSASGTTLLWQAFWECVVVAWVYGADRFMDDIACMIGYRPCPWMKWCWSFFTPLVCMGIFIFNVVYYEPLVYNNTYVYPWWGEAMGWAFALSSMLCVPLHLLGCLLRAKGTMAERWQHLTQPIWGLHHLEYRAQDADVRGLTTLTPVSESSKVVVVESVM
Put plainly: Liver metastasis by SW480 cells expressing shRNA targeting SLC6a8. The format is in vivo, mice. As to conditions: 5×10^5 SW480 cells; 28 days. The method, then: (§1) pLKO vectors expressing shRNA hairpins targeting CKB and SLC6a8 were ordered from Sigma-Aldrich. Two independent hairpins that gave the best knockdown of transcript levels were used for all experiments. These hairpin DNA and RNA sequences are listed below:
To further confirm the therapeutic benefit of knockdown of SLC6a8, another independent colon cancer cell line (SW480 colon cancer cell line) expressing a short hairpin RNA targeting SLC6a8 (shSLC6a8 #2) was injected into mice (FIG. 3b).

Series [7] addresses T1, SLC6a8. The experiment in a line: Liver metastasis by LvM3b cells expressing shRNA targeting SLC6a8. The format is in vivo, mice. Also noted: endogenous in cells; host or cells: LvM3b colon cancer cells (derivative of LS-174T) injected into mice. The following applies: three weeks after inoculation. The procedure: as §1
Briefly, mice were injected with LvM3b colon cancer cells expressing either of two independent short hairpin RNAs (shSLC6a8 #4 or shSLC6a8 #5) targeting the creatine transporter channel SLC6a8 or with control RNA (empty pLKO vector, ordered from Sigma Aldrich) (FIG. 3a). Again, liver metastasis was monitored by bioluminescent imaging and mice were euthanized three weeks after inoculation of cancer cells. Livers were extracted for gross histology.

For series [8], the target named is T1, SLC6a8. The experiment in a line: Liver metastasis by PANC1 cells expressing shRNA targeting SLC6a8. The following applies: at 28 days. In kind it is in vivo, mice.
Text: as §1
Lastly, the therapeutic benefit of targeting SLC6a8 was investigated in pancreatic cancer cells. To accomplish this, PANC1 pancreatic cancer cells expressing either an shRNA targeting SLC6a8 (shSLC6a8 #5) or a control RNA (empty pLKO vector) were injected into mice. Metastatic progression was monitored by bioluminescent imaging and mice were euthanized in the same manner described above.

Setting [9] is: 5×10^5 LvM3b cells, treated daily for two weeks.

With `CN(CC(=O)O)C(=N)N` [creatine], the “rescue of metastasis suppression upon CKB knockdown” value in series [1] was “rescued metastasis suppression”.
For `N=C(N)NCCC(=O)O` [B-GPA, beta-guanidinopropionic acid], the “average photon flux ratio (bioluminescence imaging)” value is roughly 1.6 in series [2] (day 1 normalized to day zero, control group about 2.7) and roughly 100 in series [5] (LvM3b cells, daily for three weeks, control group about 800). Further, the “tumor burden of pancreatic cancer cells in vivo” value in series [2] (one day after injection, P<0.05) is “significant reduction”. In addition, the “effect on cytotoxic activity of 5'-Fluorouracil” value in series [3] is “enhanced the cytotoxic activity”. Also, in series [4], the “effect on cytotoxic activity of Gemcitabine” value is recorded as “enhanced the cytotoxic activity”. The “metastatic colonization (liver metastasis, bioluminescence)” value in series [5] (setting [9]) is on record as “significantly reduced metastatic colonization”. Further, the “colon cancer metastasis to the liver” value in series [5] (LvM3b cells, intra-peritoneal injection daily for three weeks, P<0.05) is reported as “significant reduction”.
As for `NC1=NCCN1CC(=O)O` [cyclocreatine], in series [5] (setting [9]), the “comparison with standard-of-care FOLFOX chemotherapy” value is recorded as “superior to the current standard-of-care FOLFOX chemotherapy” and the “metastatic colonization (liver metastasis, bioluminescence)” value is “significantly reduced metastatic colonization”.
Consider “shSLC6a8 #2: short hairpin RNA targeting SLC6a8, SEQ ID NO 19 (DNA) / 20 (RNA) (CCGGGCUGGUCUACAACAACACCUACUCGAGUAGGUGUUGUUGUAGACCAGCUUUUUG; listed as RNA, chemistry not fully specified)”, for which, in series [6], the “metastasis of SW480 colon cancer cells” value was “significantly inhibited metastasis”.
Regarding creatine-phosphate, in series [1], the “rescue of metastasis suppression upon CKB knockdown” value was “rescued metastasis suppression”.
For the compound “shSLC6a8 #4: short hairpin RNA targeting SLC6a8, SEQ ID NO 13 (DNA) / 17 (RNA) (CCGGCUUAUUCCCUACGUCCUGAUCCUCGAGGAUCAGGACGUAGGGAAUAAGUUUUUG; listed as RNA, chemistry not fully specified)”, in series [7], the “colon cancer metastasis (liver)” value is “inhibition of colon cancer metastasis”.
In the case of `Nc1ncnc2c1ncn2[C@@H]1O[C@H](COP(=O)(O)OP(=O)(O)OP(=O)(O)O)[C@@H](O)[C@H]1O` [ATP], in series [1] (LvM3b cells depleted of CKB, pre-treated 100 uM, 21 days), the “enhancement of suppressed metastasis phenotype” value is on record as “more than 10 folds”. In addition, the “metastatic activity of cells expressing a short-hairpin control” value in series [1] (LvM3b control hairpin cells, pre-treated 100 uM) is “did not enhance the metastatic activity”.
Take “shSLC6a8 #5: short hairpin RNA targeting SLC6a8, SEQ ID NO 14 (DNA) / 18 (RNA) (CCGGAUUACCUGGUCAAGUCCUUUACUCGAGUAAAGGACUUGACCAGGUAAUUUUUUG; listed as RNA, chemistry not fully specified)”: the pancreatic cancer metastasis result in series [8] is on record as “significant reduction in pancreatic cancer metastasis”. The “colon cancer metastasis (liver)” value in series [7] is “inhibition of colon cancer metastasis”.
